From patent US10947227B2, “Tricyclic heterocyclic compounds as sting activators” (Incyte Corporation, priority 2018, dated 2021)
pEC50: −log10 of the molar value.

Tested on: IRF3 activation in THP-1 Dual Cells
Assay: IRF3 activation assay in THP-1 Dual Cells (QUANTI-Blue readout)
Type: cell-based
Settings: Homo sapiens, THP1-Dual, 24 h
Description: THP-1 Dual Cells (Invivogen) were maintained in RPMI1640 medium with addition of 10% FBS, 100 μg/ml zeocin, 10 μg/ml blasticidin. Cells were added in a 96-well flat bottom assay plate at 100,000 per well in 100 μL complete RPMI medium. Test compounds were prepared by serial dilution in complete RPMI medium and 100 μL test compounds were transferred to each corresponding well. The assay plate was incubated at 37° C., 5% CO2 for 24 hours. After the overnight incubation, 20 μL of the culture supernatants were collected, followed by addition of 180 μL of QUANTI-Blue (Invivogen) to assess IRF3 activity. The amount of IRF3 activation was assessed by reading the absorbance at 620-655 nm with a microplate reader 2 hours later. The culture supernatant from the untreated THP-1 cells was used as the negative control. To determine the NF-κB activation, another 20 μL of culture supernatant were transferred to a 96-well white plate, followed by addition of 50 μL of Quanti-Luc™ assay solution (Invivogen). The amount of NF-κB activation induced by the test compounds were determined by the luminescence above the untreated control. EC50 determination was performed by fitting the curve of percent control activity versus the log of the compound concentration using the GraphPad Prism 6.0 software.

Compound | pEC50 (Table 1, 24 hours incubation) | pEC50 (Table 2, 24 hours incubation)
CCn1nc(C)cc1C(=O)Nc1nc2cc(C(N)=O)cc(C)c2n1C/C=C/Cn1c2nc(-c3cc(C)nn3CC)ncc2c2cc(C(N)=O)cc(OCCCOC)c21 [Example 12, (E)-9-(4-(5-carbamoyl-2-(1-ethyl-3-methyl-1H-pyrazole-5-carboxamido)-7-methyl-1H-benzo[d]imidazol-1-yl)but-2-enyl)-2-(1-ethyl-3-methyl-1H-pyrazol-5-yl)-8-(3-methoxypropoxy)-9H-pyrimido[4,5-b]indole-6-carboxamide] | > 6.70 | > 7.30
CCn1nc(C)cc1C(=O)Nc1nc2cc(C(N)=O)cc(O)c2n1C/C=C/Cn1c2nc(-c3cc(C)nn3CC)ncc2c2cc(C(N)=O)cc(OCCCOC)c21 [Example 28, (E)-9-(4-(5-carbamoyl-2-(1-ethyl-3-methyl-1H-pyrazole-5-carboxamido)-7-hydroxy-1H-benzo[d]imidazol-1-yl)but-2-en-1-yl)-2-(1-ethyl-3-methyl-1H-pyrazol-5-yl)-8-(3-methoxypropoxy)-9H-pyrimido[4,5-b]indole-6-carboxamide] | > 6.70 | > 7.30
CCn1nc(C)cc1C(=O)Nc1nc2cc(C(N)=O)cc(OCCCO)c2n1C/C=C/Cn1c2nc(-c3cc(C)nn3CC)ncc2c2cc(C(N)=O)cc(OCCCNC(=O)OCCC(=O)O)c21 [Example 49, (E)-3-(3-(6-carbamoyl-9-(4-(5-carbamoyl-2-(1-ethyl-3-methyl-1H-pyrazole-5-carboxamido)-7-(3-hydroxypropoxy)-1H-benzo[d]imidazol-1-yl)but-2-enyl)-2-(1-ethyl-3-methyl-1H-pyrazol-5-yl)-9H-pyrimido[4,5-b]indol-8-yloxy)propylcarbamoyloxy)propanoic Acid] | – | > 7.30
CCn1nc(C)cc1C(=O)Nc1nc2cc(C(N)=O)cc(OC(C)C)c2n1C/C=C/Cn1c2nc(-c3cc(C)nn3CC)ncc2c2cc(C(N)=O)cc(OCCCOC)c21 [Example 30, (E)-9-(4-(5-carbamoyl-2-(1-ethyl-3-methyl-1H-pyrazole-5-carboxamido)-7-isopropoxy-1H-benzo[d]imidazol-1-yl)but-2-en-1-yl)-2-(1-ethyl-3-methyl-1H-pyrazol-5-yl)-8-(3-methoxypropoxy)-9H-pyrimido[4,5-b]indole-6-carboxamide] | – | 6.70 to 7.30
CCn1nc(C)cc1C(=O)Nc1nc2cc(C(N)=O)cc(C)c2n1C/C=C/Cn1c2ccc(C(N)=O)cc2c2cnc(-c3cc(C)nn3CC)c(F)c21 [Example 23, (E)-5-(4-(5-carbamoyl-2-(1-ethyl-3-methyl-1H-pyrazole-5-carboxamido)-7-methyl-1H-benzo[d]imidazol-1-yl)but-2-en-1-yl)-3-(1-ethyl-3-methyl-1H-pyrazol-5-yl)-4-fluoro-5H-pyrido[4,3-b]indole-8-carboxamide] | > 6.70 | 6.70 to 7.30
CCn1nc(C)cc1C(=O)Nc1nc2cc(C(N)=O)cc(OCCCN)c2n1C/C=C/Cn1c2nc(-c3cc(C)nn3CC)ncc2c2cc(C(N)=O)cc(OCCCOC)c21 [Example 33, (E)-9-(4-(7-(3-aminopropoxy)-5-carbamoyl-2-(1-ethyl-3-methyl-1H-pyrazole-5-carboxamido)-1H-benzo[d]imidazol-1-yl)but-2-en-1-yl)-2-(1-ethyl-3-methyl-1H-pyrazol-5-yl)-8-(3-methoxypropoxy)-9H-pyrimido[4,5-b]indole-6-carboxamide] | – | 6.00 to 6.30
CCn1nc(C)cc1C(=O)Nc1nc2cc(C(N)=O)cc(OCCCO)c2n1C/C=C/Cn1c2nc(-c3cc(C)nn3CC)ncc2c2cc(C(N)=O)cc(OCCCOC(=O)NCCC(=O)O)c21 [Example 57, (E)-3-((3-(6-carbamoyl-9-(4-(5-carbamoyl-2-(1-ethyl-3-methyl-1H-pyrazole-5-carboxamido)-7-(3-hydroxypropoxy)-1H-benzo[d]imidazol-1-yl)but-2-enyl)-2-(1-ethyl-3-methyl-1H-pyrazol-5-yl)-9H-pyrimido[4,5-b]indol-8-yloxy)propoxy)carbonylamino)propanoic Acid] | – | 6.70 to 7.30
CCn1nc(C)cc1C(=O)Nc1nc2cc(C(N)=O)cc(C)c2n1C/C=C/Cn1c2ccc(C(N)=O)cc2c2cnc(-c3cc(C)nn3CC)nc21 [Example 1, (E)-9-(4-(5-carbamoyl-2-(1-ethyl-3-methyl-1H-pyrazole-5-carboxamido)-7-methyl-1H-benzo[d]imidazol-1-yl)but-2-enyl)-2-(1-ethyl-3-methyl-1H-pyrazol-5-yl)-9H-pyrimido[4,5-b]indole-6-carboxamide] | > 6.00 | 6.70 to 7.30
CCn1nc(C)cc1C(=O)Nc1nc2cc(C(N)=O)cc(OC)c2n1C/C=C/Cn1c2nc(-c3cc(C)nn3CC)ncc2c2cc(C(N)=O)cc(OCCCNC(=O)CCCC(=O)O)c21 [Example 46, (E)-5-(3-(6-carbamoyl-9-(4-(5-carbamoyl-2-(1-ethyl-3-methyl-1H-pyrazole-5-carboxamido)-7-methoxy-1H-benzo[d]imidazol-1-yl)but-2-enyl)-2-(1-ethyl-3-methyl-1H-pyrazol-5-yl)-9H-pyrimido[4,5-b]indol-8-yloxy)propylamino)-5-oxopentanoic Acid] | – | > 7.30
CCn1nc(C)cc1C(=O)Nc1nc2cc(C(N)=O)cc(OCCCNC(=O)[C@@H](N)CC(=O)O)c2n1C/C=C/Cn1c2nc(-c3cc(C)nn3CC)ncc2c2cc(C(N)=O)cc(OCCCOC)c21 [Example 42, (S,E)-3-amino-4-((3-((5-carbamoyl-1-(4-(6-carbamoyl-2-(1-ethyl-3-methyl-1H-pyrazol-5-yl)-8-(3-methoxypropoxy)-9H-pyrimido[4,5-b]indol-9-yl)but-2-en-1-yl)-2-(1-ethyl-3-methyl-1H-pyrazole-5-carboxamido)-1H-benzo[d]imidazol-7-yl)oxy)propyl)amino)-4-oxobutanoic Acid] | – | 6.70 to 7.30
CCn1nc(C)cc1C(=O)Nc1nc2cc(C(N)=O)cc(OCCCOC(=O)NCCC(=O)O)c2n1C/C=C/Cn1c2nc(-c3cc(C)nn3CC)ncc2c2cc(C(N)=O)cc(OCCCOC)c21 [Example 43, (E)-3-(((3-((5-carbamoyl-1-(4-(6-carbamoyl-2-(1-ethyl-3-methyl-1H-pyrazol-5-yl)-8-(3-methoxypropoxy)-9H-pyrimido[4,5-b]indol-9-yl)but-2-en-1-yl)-2-(1-ethyl-3-methyl-1H-pyrazole-5-carboxamido)-1H-benzo[d]imidazol-7-yl)oxy)propoxy)carbonyl)amino)propanoic Acid] | – | > 7.30
CCn1nc(C)cc1C(=O)Nc1nc2cc(C(N)=O)cc(OCCCNC(=O)CCC(=O)O)c2n1C/C=C/Cn1c2nc(-c3cc(C)nn3CC)ncc2c2cc(C(N)=O)cc(OCCCOC)c21 [Example 59, (E)-4-((3-((5-carbamoyl-1-(4-(6-carbamoyl-2-(1-ethyl-3-methyl-1H-pyrazol-5-yl)-8-(3-methoxypropoxy)-9H-pyrimido[4,5-b]indol-9-yl)but-2-en-1-yl)-2-(1-ethyl-3-methyl-1H-pyrazole-5-carboxamido)-1H-benzo[d]imidazol-7-yl)oxy)propyl)amino)-4-oxobutanoic Acid] | – | 6.70 to 7.30
CCn1nc(C)cc1C(=O)Nc1nc2cc(C(N)=O)cc(C)c2n1C/C=C/Cn1c2ccc(C(N)=O)cc2c2cnc(-c3cc(C)nn3CC)c(C#N)c21 [Example 26, (E)-5-(4-(5-carbamoyl-2-(1-ethyl-3-methyl-1H-pyrazole-5-carboxamido)-7-methyl-1H-benzo[d]imidazol-1-yl)but-2-en-1-yl)-4-cyano-3-(1-ethyl-3-methyl-1H-pyrazol-5-yl)-5H-pyrido[4,3-b]indole-8-carboxamide] | > 6.00 | 6.00 to 6.30
CCn1nc(C)cc1C(=O)Nc1nc2cc(C(N)=O)cc(C)c2n1C/C=C/Cn1c2ccc(C(N)=O)cc2c2cc(C#N)c(-c3cc(C)nn3CC)nc21 [Example 25, (E)-9-(4-(5-carbamoyl-2-(1-ethyl-3-methyl-1H-pyrazole-5-carboxamido)-7-methyl-1H-benzo[d]imidazol-1-yl)but-2-en-1-yl)-3-cyano-2-(1-ethyl-3-methyl-1H-pyrazol-5-yl)-9H-pyrido[2,3-b]indole-6-carboxamide] | > 6.00 | 6.30 to 6.70
CCn1nc(C)cc1C(=O)Nc1nc2cc(C(N)=O)cc(OC)c2n1C/C=C/Cn1c2nc(-c3cc(C)nn3CC)ncc2c2cc(C(N)=O)cc(OCCC3CCN(C(=O)OCC(=O)O)CC3)c21 [Example 56, (E)-2-(4-(2-(6-carbamoyl-9-(4-(5-carbamoyl-2-(1-ethyl-3-methyl-1H-pyrazole-5-carboxamido)-7-methoxy-1H-benzo[d]imidazol-1-yl)but-2-enyl)-2-(1-ethyl-3-methyl-1H-pyrazol-5-yl)-9H-pyrimido[4,5-b]indol-8-yloxy)ethyl)piperidine-1-carbonyloxy)acetic Acid] | – | 6.70 to 7.30
CCn1nc(C)cc1C(=O)Nc1nc2cc(C(N)=O)cc(OCCCOC)c2n1C/C=C/Cn1c2nc(-c3cc(C)nn3CC)ncc2c2cc(C(N)=O)cc(OCCCNC(=O)OCCC(=O)O)c21 [Example 51, (E)-3-(3-(6-carbamoyl-9-(4-(5-carbamoyl-2-(1-ethyl-3-methyl-1H-pyrazole-5-carboxamido)-7-(3-methoxypropoxy)-1H-benzo[d]imidazol-1-yl)but-2-enyl)-2-(1-ethyl-3-methyl-1H-pyrazol-5-yl)-9H-pyrimido[4,5-b]indol-8-yloxy)propylcarbamoyloxy)propanoic Acid] | – | > 7.30
